Results taken from patent publication US20240246920A1, “TRIAZOLE DERIVATIVES WITH ANTIFUNGAL ACTIVITY” (King's College London, priority 2020, published 2024).
Converted amounts (≈) assume the structure as drawn. Read-outs that look alike come from different tables or passages of the source.

Tests used:
[1] = system: C. glabrata NCPF8018; assay: Candida panel MIC, serial dilution in 96-well plates; format: cell-based, Candida glabrata; conditions: Nakaseomyces glabratus
Protocol: (§1) The minimum inhibitory concentration of test compounds were determined in a panel of Candida species (see Table 4 below), using the a serial dilution method in 96-well plates using the following protocol.
(§2) Starter cultures of fungal strains to be tested were grown in 3 mL of RPMI 2% glucose media incubated at 37° C. with shaking at 200 rpm overnight. The culture media used was 900 mL H2O; 10.4 g RPMI 1640 (with L-glutamine and a pH indicator but without bicarbonate); 34.5 g MOPS and 18 g glucose. The pH of the media was adjusted to 7.0 with 1 M sodium hydroxide.
(§3) Solutions of the compound to be tested were prepared by dissolving the compound in DMSO and subsequently into media to the desired concentrations. […] The last two rows of each plate were control rows containing the culture media alone and the media plus fungi.
(§4) The fungi starter cultures were diluted 1:10 in water in cuvettes. This was then further diluted to an optical density (OD600) of 0.01 in media. 100 μL of the fungi was added to each well giving a starting concentration of fungus of 0.5-5×10^5/mL. One species of fungus was used on each plate. The plates were then held at 37° C. for 24 hours.
(§5) A plate reader was used to measure growth in each well at OD530 nm and the MIC was determined for each test compound. The MIC is defined as the lowest concentration giving rise to inhibition of ≥50% of that of the drug-free control well containing the fungus and media.

[2] = system: C. tropicalis NCPF8760; assay: as above; format: cell-based
Protocol: as §1, §2
(§6) Solutions of the compound to be tested were prepared by dissolving the compound in DMSO and subsequently into media to the desired concentrations. 200 μL of compound solution was then added to the wells of the 96-well plate using a serial dilution method row-by row of the plate to give a compound concentration gradient across the plate of from 128 μg/mL to 0.25 μg/mL. The last two rows of each plate were control rows containing the culture media alone and the media plus fungi.
as §4, §5

[3] = system: C. auris TDG1912; assay: as above; format: cell-based; conditions: Candidozyma auris, TDG1912; Table 4; 24 hours, ≥50% inhibition; read-out: MIC C. auris TDG1912
Protocol: as §1, §2, §6, §4, §5

[4] = system: C. albicans NCPF3281; assay: as above; format: cell-based, Candida albicans; conditions: Candida albicans, NCPF3281; Table 4, common panel; 24 hours, ≥50% inhibition; read-out: MIC C. albicans NCPF3281
Protocol: as §1, §2, §6, §4, §5

[5] = system: C. krusei NCPF3876; assay: microbe, parasite or virus in culture; format: cell-based, Candida krusei; conditions: Pichia kudriavzevii
Protocol: as §1, §2, §3, §4, §5

[6] = system: C. parapsilosis NCPF3209; assay: microbe, parasite or virus in culture; format: cell-based, Candida parapsilosis; conditions: Lodderomyces parapsilosis
Protocol: as §1, §2, §3, §4, §5

[7] = system: Candida auris TDG2512; assay: Candida panel MIC, serial dilution in 96-well plates; format: cell-based; conditions: Candidozyma auris, TDG2512; Table 4, extended panel; 24 hours, ≥50% inhibition; read-out: MIC Candida auris TDG2512
Protocol: as §1, §2, §6, §4, §5

[8] = system: Candida auris TDG1102; assay: as above; format: cell-based; conditions: Candidozyma auris, TDG1102; Table 4, extended panel; 24 hours, ≥50% inhibition; read-out: MIC Candida auris TDG1102
Protocol: as §1, §2, §6, §4, §5

[9] = system: C. auris 8984; assay: as above; format: cell-based, Candida auris; conditions: Candidozyma auris, 8984; Table 4, extended panel; 24 hours, ≥50% inhibition; read-out: MIC C. auris 8984
Protocol: as §1, §2, §3, §4, §5
(§7) The Candida auris strains shown in Table 7 were either taken from the National Collection of Pathogenic Fungi (NCPF) or collected as part of ongoing surveillance studies. The strains were characterised as follows.

[10] = system: C. auris 8971; assay: as above; format: cell-based, Candida auris; conditions: Candidozyma auris, 8971; Table 4, extended panel; 24 hours, ≥50% inhibition; read-out: MIC C. auris 8971
Protocol: as §1, §2, §3, §4, §5, §7

[11] = system: C. auris 8977; assay: as above; format: cell-based, Candida auris; conditions: Candidozyma auris, 8977; Table 4, extended panel; 24 hours, ≥50% inhibition; read-out: MIC C. auris 8977
Protocol: as §1, §2, §3, §4, §5, §7

[12] = system: Candida auris TDG2506; assay: microbe, parasite or virus in culture; format: cell-based; conditions: Candidozyma auris, TDG2506; Table 4, extended panel; 24 hours, ≥50% inhibition; read-out: MIC Candida auris TDG2506
Protocol: as §1, §2, §3, §4, §5, §7

[13] = system: Candida auris TDG2211; assay: microbe, parasite or virus in culture; format: cell-based; conditions: Candidozyma auris, TDG2211; Table 4, extended panel; 24 hours, ≥50% inhibition; read-out: MIC Candida auris TDG2211
Protocol: as §1, §2, §3, §4, §5, §7

[14] = NCPF8018, Table 4, common panel, 24 hours, ≥50% inhibition, read-out: MIC C. glabrata NCPF8018
[15] = NCPF8760, Table 4, common panel, 24 hours, ≥50% inhibition, read-out: MIC C. tropicalis NCPF8760
[16] = NCPF3876, Table 4, common panel, 24 hours, ≥50% inhibition, read-out: MIC C. krusei NCPF3876
[17] = NCPF3209, Table 4, common panel, 24 hours, ≥50% inhibition, read-out: MIC C. parapsilosis NCPF3209
[18] = NCPF8018, read-out: MIC C. Glabrata NCPF8018
[19] = NCPF8760, read-out: MIC C. Tropicalis NCPF8760
[20] = NCPF3876, read-out: MIC C. Krusei NCPF3876
[21] = NCPF3209, read-out: MIC C. Parapsilosis NCPF3209

SMILES	MIC [1, 14] [ng/mL]	MIC [2, 15] [ng/mL]	MIC [3] [ng/mL]	MIC [4] [ng/mL]	MIC [5, 16] [ng/mL]	MIC [6, 17] [ng/mL]	MIC [1, 18] [ng/mL]	MIC [7] [ng/mL]	MIC [8] [ng/mL]	MIC [2, 19] [ng/mL]	MIC [9] [ng/mL]	MIC [10] [ng/mL]	MIC [11] [ng/mL]	MIC [12] [ng/mL]	MIC [13] [ng/mL]	MIC [5, 20] [ng/mL]	MIC [6, 21] [ng/mL]
OC(CN1CCC2(CCN(Cc3ccccc3)CC2)CC1)(Cn1cncn1)c1ccc(F)cc1F (stereo not shown) [Example 1, 1-(9-Benzyl-3,9-diazaspiro[5.5]undecan-3-yl)-2-(2,4-difluorophenyl)-3-(1H-1,2,4-triazol-1-yl)propan-2-ol]	≤ 125	250 to 1000 (≈ 0.519 to 2.08 µM)	≤ 125	500 to 1000 (≈ 1.04 to 2.08 µM)	1000 to 2000 (≈ 2.08 to 4.15 µM)	4000 to 8000 (≈ 8.31 to 16.6 µM)											
OC(CN1CCC2(CCN(c3ncc(F)cn3)CC2)C1)(Cn1cncn1)c1ccc(F)cc1F (stereo not shown) [Example 7, 2-(2,4-Difluorophenyl)-1-(8-(5-fluoropyrimidin-2-yl)-2,8-diazaspiro[4.5]decan-2-yl)-3-(1H-1,2,4-triazol-1-yl)propan-2-ol]	250 (≈ 0.528 µM)	15 (≈ 0.0317 µM)	120 (≈ 0.253 µM)	< 8	60 (≈ 0.127 µM)	4 (≈ 0.00845 µM)	250 (≈ 0.528 µM)	30 (≈ 0.0634 µM)	250 (≈ 0.528 µM)	15 (≈ 0.0317 µM)	120 (≈ 0.253 µM)	30 (≈ 0.0634 µM)	2 (≈ 0.00422 µM)	500 (≈ 1.06 µM)	125 (≈ 0.264 µM)	60 (≈ 0.127 µM)	4 (≈ 0.00845 µM)
OC(CN1CCCN(c2ncc(F)cn2)CC1)(Cn1cncn1)c1ccc(F)cc1F (stereo not shown) [Example 8, 2-(2,4-Difluorophenyl)-1-(4-(5-fluoropyrimidin-2-yl)-1,4-diazepan-1-yl)-3-(1H-1,2,4-triazol-1-yl)propan-2-ol]	250 (≈ 0.577 µM)	1000 (≈ 2.31 µM)	2000 (≈ 4.61 µM)	< 15	500 (≈ 1.15 µM)	15 (≈ 0.0346 µM)		2000 (≈ 4.61 µM)	1000 (≈ 2.31 µM)		120 (≈ 0.277 µM)	120 (≈ 0.277 µM)	120 (≈ 0.277 µM)	8000 (≈ 18.5 µM)	1000 (≈ 2.31 µM)		
OC(CN1CCCC(Nc2ccc(Cc3ccccc3)cc2)CC1)(Cn1cncn1)c1ccc(F)cc1F (stereo not shown) [Example 9, 1-(4-((4-Benzylphenyl)amino)azepan-1-yl)-2-(2,4-difluorophenyl)-3-(1H-1,2,4-triazol-1-yl)propan-2-ol]	125 (≈ 0.241 µM)	125 (≈ 0.241 µM)	500 (≈ 0.966 µM)	< 4	8 (≈ 0.0155 µM)	≤ 0.06	125 (≈ 0.241 µM)	125 (≈ 0.241 µM)	1000 (≈ 1.93 µM)	500 (≈ 0.966 µM)	120 (≈ 0.232 µM)	120 (≈ 0.232 µM)	0.1 (≈ 0.000193 µM)	500 (≈ 0.966 µM)	250 (≈ 0.483 µM)	8 (≈ 0.0155 µM)	≤ 0.06
OC(CN1CCCCN(c2cnccn2)CC1)(Cn1cncn1)c1ccc(F)cc1F (stereo not shown) [Example 17, 2-(2,4-Difluorophenyl)-1-(4-(pyrazin-2-yl)-1,4-diazocan-1-yl)-3-(1H-1,2,4-triazol-1-yl)propan-2-ol]	120 (≈ 0.279 µM)	4000 to 8000 (≈ 9.31 to 18.6 µM)	4000 to 16000 (≈ 9.31 to 37.3 µM)	≤ 125	4000 (≈ 9.31 µM)	≤ 125											
CC(C)COc1ccc(NC2CCN(CC(O)(Cn3cncn3)c3ccc(F)cc3F)CC2)cc1 (stereo not shown) [Example 84]	60 (≈ 0.124 µM)	125 (≈ 0.257 µM)		1.95 (≈ 0.00402 µM)	30 (≈ 0.0618 µM)	0.98 to 1.95 (≈ 0.00202 to 0.00402 µM)	60 (≈ 0.124 µM)	1.95 to 3.91 (≈ 0.00402 to 0.00805 µM)	15.6 (≈ 0.0321 µM)	125 (≈ 0.257 µM)	30 (≈ 0.0618 µM)	1.95 to 3.91 (≈ 0.00402 to 0.00805 µM)	3.91 (≈ 0.00805 µM)	30 (≈ 0.0618 µM)	0.98 to 1.95 (≈ 0.00202 to 0.00402 µM)	30 (≈ 0.0618 µM)	0.98 to 1.95 (≈ 0.00202 to 0.00402 µM)
COc1ccc(Oc2ccc(NC3CCN(CC(O)(Cn4cncn4)c4ccc(F)cc4F)CC3)cc2)cc1 (stereo not shown) [Example 86]	500 (≈ 0.934 µM)	125 (≈ 0.233 µM)		7.8 to 15.6 (≈ 0.0146 to 0.0291 µM)	15 to 125 (≈ 0.028 to 0.233 µM)	0.98 to 7.8 (≈ 0.00183 to 0.0146 µM)	500 (≈ 0.934 µM)	7.8 (≈ 0.0146 µM)	15 to 62.5 (≈ 0.028 to 0.117 µM)	125 (≈ 0.233 µM)	7.8 to 125 (≈ 0.0146 to 0.233 µM)	0.98 to 30 (≈ 0.00183 to 0.056 µM)	0.98 to 3.9 (≈ 0.00183 to 0.00728 µM)	62.5 (≈ 0.117 µM)	7.8 (≈ 0.0146 µM)	15 to 125 (≈ 0.028 to 0.233 µM)	0.98 to 7.8 (≈ 0.00183 to 0.0146 µM)
